ChEMBL document CHEMBL5120904, “Zelkovamycins F and G, Cyclopeptides with Cα-Methyl-threonine Residues, from an Endophytic Kitasatospora sp” (J Nat Prod, 2022)
Values after ≈ are worked out from the molar mass of the structure shown. *1 amine or outer side, *2 acyl side, *3 side chain or, on linkers, in order; H or OH if unused. Where a SMILES comes first, the peptide text is derived from it. [ ]: non-standard residue; d: D form. dAla(ψthiazole) = C[C@@H](N[*:1])c1nc(C(=O)[*:2])cs1; Trp(4-OMe) = COc1cccc2[nH]cc(C[C@H](N)C(=O)O)c12; X1 = CC(=O)[C@](C)(N[*:1])C(=O)[*:2]; Dhb = C/C=C(\N)C(=O)O; Sar = CNCC(=O)O

How the values were obtained:
[1] = test system: Hepatitis C virus; experiment: Antiviral activity against HCV infected in human Huh7.5 cells assessed as reduction in viral RNA level measured after 72 hrs by RT-PCR analysis; assay type: functional, organism-based, Hepacivirus hominis; conditions: Huh7.5, 72 h
[2] = Selectivity index, ratio of CC50 for human Huh7.5 cells to EC50 for antiviral activity against HCV infected in human Huh7.5 cells; assay type: toxicity, cell-based; conditions: read-out: Ratio CC50/EC50
[3] = Cytotoxicity against human Huh7.5 cells; assay type: toxicity, cell-based, Huh-7.5
[4] = test system: Escherichia coli; experiment: Antibacterial activity against Escherichia coli measured after 24 hrs by broth microdilution method; assay type: functional
[5] = test system: Staphylococcus aureus; experiment: Antibacterial activity against methicillin-resistant Staphylococcus aureus R6101 measured after 24 hrs by broth microdilution method; assay type: functional
[6] = test system: Staphylococcus aureus; experiment: Antibacterial activity against methicillin-resistant Staphylococcus aureus ATCC33591 measured after 24 hrs by broth microdilution method; assay type: functional
[7] = test system: Staphylococcus epidermidis; experiment: Antibacterial activity against Staphylococcus epidermidis ATCC12228 measured after 24 hrs by broth microdilution method; assay type: functional
[8] = test system: Bacillus subtilis; experiment: Antibacterial activity against Bacillus subtilis ATCC6633 measured after 24 hrs by broth microdilution method; assay type: functional
[9] = test system: Morganella morganii; experiment: Antibacterial activity against multidrug-resistant Morganella morganii KL-225 measured after 24 hrs by broth microdilution method; assay type: functional
[10] = test system: Morganella morganii; experiment: Antibacterial activity against beta-lactamase-producing Morganella morganii ATCC25830 measured after 24 hrs by broth microdilution method; assay type: functional
[11] = test system: Klebsiella pneumoniae; experiment: Antibacterial activity against Klebsiella pneumoniae ATCC700603 measured after 24 hrs by broth microdilution method; assay type: functional
[12] = test system: Pseudomonas aeruginosa; experiment: Antibacterial activity against Pseudomonas aeruginosa ATCC27853 measured after 24 hrs by broth microdilution method; assay type: functional
[13] = test system: Influenza A virus; experiment: Antiviral activity against Influenza A virus A/WSN/33(H1N1) infected in HEK293T cells pretreated for 2 hrs followed by viral infection and measured after 24 hrs by Gaussia luciferase assay; assay type: functional, organism-based; conditions: HEK-293T
[14] = test system: Staphylococcus aureus; experiment: Antibacterial activity against methicillin-sensitive Staphylococcus aureus ATCC29213 measured after 24 hrs by broth microdilution method; assay type: functional

Row | SMILES | EC50 [1] | selectivity ratio [2] | CC50 [3] | MIC [4] | MIC [5] | MIC [6] | MIC [7] | MIC [8] | MIC [9] | MIC [10] | MIC [11] | MIC [12] | EC50 [13] | MIC [14]
1 | CC(C)OC(=O)[C@H](C)N[P@@](=O)(OC[C@H]1O[C@@H](n2ccc(=O)[nH]c2=O)[C@](C)(F)[C@@H]1O)Oc1ccccc1 | 0.06 µM | > 3330 | > 200 µM |  |  |  |  |  |  |  |  |  |  | 
2 | C/C=C1\NC(=O)[C@@H](C)NC(=O)CNC(=O)[C@@H](CC)NC(=O)[C@H](Cc2c[nH]c3cccc(OC)c23)NC(=O)c2csc(n2)[C@@H](C)NC(=O)CN(C)C1=O |  |  |  | > 160 µg/mL | > 160 µg/mL | > 160 µg/mL | > 160 µg/mL | > 160 µg/mL | > 160 µg/mL | > 160 µg/mL | > 160 µg/mL | > 160 µg/mL | > 50 µM | > 160 µg/mL
3 | C/C=C1\NC(=O)[C@@H](CC)NC(=O)CNC(=O)[C@](C)(C(C)=O)NC(=O)[C@H](Cc2c[nH]c3cccc(OC)c23)NC(=O)c2csc(n2)[C@@H](C)NC(=O)CN(C)C1=O | 6.3 µM | > 17.7 | > 111 µM | > 160 µg/mL | 10 µg/mL (≈ 12.8 µM) | 0.31 µg/mL (≈ 0.397 µM) | 2.5 µg/mL (≈ 3.21 µM) | > 160 µg/mL | 20 µg/mL (≈ 25.6 µM) | 20 µg/mL (≈ 25.6 µM) | > 160 µg/mL | > 160 µg/mL |  | 2.5 µg/mL (≈ 3.21 µM)
4 | C/C=C1\NC(=O)[C@@H](CC)NC(=O)CNC(=O)[C@](C)([C@@H](C)O)NC(=O)[C@H](Cc2c[nH]c3cccc(OC)c23)NC(=O)c2csc(n2)[C@@H](C)NC(=O)CN(C)C1=O |  |  |  | > 160 µg/mL | 40 µg/mL (≈ 51.2 µM) | 1.25 µg/mL (≈ 1.6 µM) | 0.62 µg/mL (≈ 0.793 µM) | > 160 µg/mL | > 160 µg/mL | 160 µg/mL (≈ 205 µM) | > 160 µg/mL | > 160 µg/mL | > 50 µM | 10 µg/mL (≈ 12.8 µM)
5 | C/C=C1\NC(=O)[C@@H](CC)NC(=O)CNC(=O)[C@](C)([C@H](C)O)NC(=O)[C@H](Cc2c[nH]c3cccc(OC)c23)NC(=O)c2csc(n2)[C@@H](C)NC(=O)CN(C)C1=O | 98.6 µM | > 2 | > 200 µM | > 160 µg/mL | 40 µg/mL (≈ 51.2 µM) | 2.5 µg/mL (≈ 3.2 µM) | 1.25 µg/mL (≈ 1.6 µM) | > 160 µg/mL | 160 µg/mL (≈ 205 µM) | 80 µg/mL (≈ 102 µM) | > 160 µg/mL | > 160 µg/mL | > 50 µM | 20 µg/mL (≈ 25.6 µM)
6 | C/C=C1\NC(=O)[C@@H](C)NC(=O)CNC(=O)[C@](C)(C(C)=O)NC(=O)[C@H](Cc2c[nH]c3cccc(OC)c23)NC(=O)c2csc(n2)[C@@H](C)NC(=O)CNC1=O | 46.9 µM | > 4.3 | > 200 µM | > 160 µg/mL | > 160 µg/mL | > 160 µg/mL | > 160 µg/mL | > 160 µg/mL | > 160 µg/mL | > 160 µg/mL | > 160 µg/mL | > 160 µg/mL | > 50 µM | > 160 µg/mL
7 | C/C=C1\NC(=O)[C@@H](CC)NC(=O)CNC(=O)[C@](C)(C(C)=O)NC(=O)[C@H](Cc2c[nH]c3cccc(OC)c23)NC(=O)c2csc(n2)[C@@H](C)NC(=O)CNC1=O | 98.5 µM | > 1.1 | > 106 µM | > 160 µg/mL | > 160 µg/mL | 160 µg/mL (≈ 209 µM) | 160 µg/mL (≈ 209 µM) | > 160 µg/mL | > 160 µg/mL | > 160 µg/mL | > 160 µg/mL | > 160 µg/mL | > 50 µM | > 160 µg/mL
8 | C=C1NC(=O)[C@@H](CC)NC(=O)CNC(=O)[C@](C)(C(C)=O)NC(=O)[C@H](Cc2c[nH]c3cccc(OC)c23)NC(=O)c2csc(n2)[C@@H](C)NC(=O)CN(C)C1=O |  |  |  | > 160 µg/mL | 40 µg/mL (≈ 52.2 µM) | 1.25 µg/mL (≈ 1.63 µM) | 5 µg/mL (≈ 6.53 µM) | > 160 µg/mL | 40 µg/mL (≈ 52.2 µM) | 40 µg/mL (≈ 52.2 µM) | > 160 µg/mL | > 160 µg/mL | > 50 µM | 10 µg/mL (≈ 13.1 µM)
9 | C/C=C1\NC(=O)[C@@H](C)NC(=O)CNC(=O)[C@](C)(C(C)=O)NC(=O)[C@H](Cc2c[nH]c3cccc(OC)c23)NC(=O)c2csc(n2)[C@@H](C)NC(=O)CN(C)C1=O (cyclo([Dhb][Sar][dAla(ψthiazole)][Trp(4-OMe)][X1]G[dA])) | 2.2 µM | > 16.6 | > 36.5 µM |  |  |  |  |  |  |  |  |  |  | 
10 | C[C@H]1COc2c(N3CCN(C)CC3)c(F)cc3c(=O)c(C(=O)O)cn1c23.C[C@H]1COc2c(N3CCN(C)CC3)c(F)cc3c(=O)c(C(=O)O)cn1c23.O [LEVOFLOXACIN] |  |  |  |  | 5 µg/mL | 0.078 µg/mL | 0.16 µg/mL | < 0.078 µg/mL | 5 µg/mL | < 0.078 µg/mL |  |  |  | 0.078 µg/mL
11 | Cc1onc(-c2ccccc2)c1C(=O)N[C@@H]1C(=O)N2[C@@H]1SC(C)(C)[C@@H]2C(=O)O [OXACILLIN] |  |  |  |  | > 160 µg/mL | 80 µg/mL (≈ 199 µM) | 0.16 µg/mL (≈ 0.399 µM) | < 0.078 µg/mL | > 160 µg/mL | 40 µg/mL (≈ 99.6 µM) |  |  |  | 0.078 µg/mL (≈ 0.194 µM)
12 | CO[C@H]1/C=C/O[C@@]2(C)Oc3c(C)c(O)c4c(O)c(c(/C=N/N5CCN(C)CC5)c(O)c4c3C2=O)NC(=O)/C(C)=C\C=C\[C@H](C)[C@H](O)[C@@H](C)[C@@H](O)[C@@H](C)[C@H](OC(C)=O)[C@@H]1C [RIFAMPIN] |  |  |  |  | 10 µg/mL (≈ 12.2 µM) | < 0.078 µg/mL | < 0.078 µg/mL | < 0.078 µg/mL | 10 µg/mL (≈ 12.2 µM) | 10 µg/mL (≈ 12.2 µM) |  |  |  | < 0.078 µg/mL
13 | CN[C@H](CC(C)C)C(=O)N[C@H]1C(=O)N[C@@H](CC(N)=O)C(=O)N[C@H]2C(=O)N[C@H]3C(=O)N[C@H](C(=O)N[C@H](C(=O)O)c4cc(O)cc(O)c4-c4cc3ccc4O)[C@H](O)c3ccc(c(Cl)c3)Oc3cc2cc(c3O[C@@H]2O[C@H](CO)[C@@H](O)[C@H](O)[C@H]2O[C@H]2C[C@](C)(N)[C@H](O)[C@H](C)O2)Oc2ccc(cc2Cl)[C@H]1O [VANCOMYCIN] |  |  |  |  | > 160 µg/mL | 0.62 µg/mL (≈ 0.428 µM) | 1.25 µg/mL (≈ 0.863 µM) | < 0.078 µg/mL | > 160 µg/mL | > 160 µg/mL |  |  |  | 1.25 µg/mL (≈ 0.863 µM)
